This is an account of results in ChEMBL document CHEMBL4038293, “Synthesis and SAR studies of 3,6-disubstituted indazole derivatives as potent hepcidin production inhibitors” (Bioorg Med Chem Lett, 2017).

Molecules are shown by their SMILES. Calls of active or inactive are those of the source. The calls are words filed in the database; no cut-off is given here. Some results are limits rather than exact numbers.

System in one series: not listed separately
As to the kind of experiment: Tmax in C57BL/6J mouse at 30 mg/kg, ip. Format: ADME, organism-based. Particulars: in vivo.
As for `O=C(Nc1n[nH]c2cc(-c3ccc(O)cc3)ccc12)c1ccc(OCCN2CCOCC2)cc1`, the Tmax is 1.33 h.

System in another series: not listed separately
Briefly: Inhibition of BMP6/hemojuvelin signalling pathway in human HepG2 cells assessed as reduction in hepcidin mRNA expression.
Details: not given
Format: cell-based.
Regarding `Oc1ccc(-c2ccc3c(NCC4CC4)n[nH]c3c2)cc1`, the IC50 came to 1600 nM.
Regarding `Nc1n[nH]c2cc(-c3ccc(O)cc3)ccc12`, the IC50 came out at 1000 nM.
The same measure, in the same setting: the result for `O=C(Nc1n[nH]c2cc(C3=CCC(O)CC3)ccc12)C1CC1` (centres undefined) reads more than 30000 nM; that for `O=C(Nc1n[nH]c2cc(-c3ccc(CO)cc3)ccc12)C1CC1`, 1400 nM; that for `O=C(Nc1n[nH]c2cc(-c3ccc(O)cc3)ccc12)NC1CC1`, 940 nM.
Same read-out and setting: to `O=C(NC1CC1)c1n[nH]c2cc(-c3ccc(O)cc3)ccc12` belongs 4200 nM.
The same measure, in the same setting: to `O=C(Nc1n[nH]c2cc(-c3ccccc3O)ccc12)C1CC1` belongs more than 30000 nM; to `CC(=O)Nc1n[nH]c2cc(-c3ccc(O)cc3)ccc12`, 1100 nM; to `COC(=O)c1ccc(C(=O)Nc2n[nH]c3cc(-c4ccc(O)cc4)ccc23)cc1`, 1100 nM.
For the compound `O=C(Nc1n[nH]c2ccc(-c3ccc4c(c3)CNC4)cc12)C1CC1`, the IC50 was 3100 nM.
The same measure, in the same setting: the result for `CN(C)CCOc1ccc(C(=O)Nc2n[nH]c3cc(-c4ccc(O)cc4)ccc23)cc1` reads 160 nM; that for `O=C(Nc1n[nH]c2cc(-c3cccc(O)c3)ccc12)C1CC1`, 4900 nM; that for `COc1ccccc1C(=O)Nc1n[nH]c2cc(-c3ccc(O)cc3)ccc12`, more than 30000 nM.
For the compound `CS(=O)(=O)Nc1ccc(-c2ccc3c(NC(=O)C4CC4)n[nH]c3c2)cc1`, the IC50 was more than 30000 nM.
Turning to `O=C(Nc1n[nH]c2cc(-c3ccc(O)cc3)ccc12)c1ccccc1`, the IC50 worked out at 470 nM.
Same read-out and setting: to `COc1cccc(C(=O)Nc2n[nH]c3cc(-c4ccc(O)cc4)ccc23)c1` belongs 700 nM; to `O=C(Nc1[nH]nc2cc(-c3ccc(O)nc3)ccc12)C1CC1`, more than 30000 nM.
On the same count and under the same terms, to `O=C(Nc1n[nH]c2cc(-c3ccc(O)cc3)ccc12)C1CC1` belongs 400 nM; to `O=C(O)c1ccc(-c2ccc3c(NC(=O)C4CC4)n[nH]c3c2)cc1`, more than 10000 nM.
Regarding `O=C(Nc1n[nH]c2cc(-c3ccc(O)cc3)ccc12)c1ccc(Cl)cc1`, the IC50 amounted to 980 nM.
In the case of `Nc1ccc(-c2ccc3c(NC(=O)C4CC4)n[nH]c3c2)cc1`, the IC50 is 4500 nM.
Still for that read-out and setting: to `CN1CCN(c2ccc(C(=O)Nc3n[nH]c4cc(-c5ccc(O)cc5)ccc34)cc2)CC1` belongs 85 nM; to `O=C(Nc1n[nH]c2cc(-c3ccc(O)cc3)ccc12)C1CCCCC1`, 930 nM; to `COc1ccc(C(=O)Nc2n[nH]c3cc(-c4ccc(O)cc4)ccc23)cc1`, 420 nM.
Consider `O=C(Nc1n[nH]c2cc(-c3ccc(O)cc3)ccc12)c1ccc(OCCN2CCOCC2)cc1`, for which the IC50 came to 130 nM.
The same measure, in the same setting: the result for `Oc1ccc(-c2ccc3cn[nH]c3c2)cc1` reads more than 3000 nM; that for `O=S(=O)(Nc1n[nH]c2cc(-c3ccc(O)cc3)ccc12)C1CC1`, more than 10000 nM; that for `O=C(Nc1n[nH]c2cc(-c3ccc(O)cc3)ccc12)c1ccc(OCCN2CCCCC2)cc1`, 120 nM.
Still for that read-out and setting: to `O=C(Nc1n[nH]c2cc(Cc3ccc(O)cc3)ccc12)C1CC1` belongs more than 30000 nM; to `CN(C)c1ccc(C(=O)Nc2n[nH]c3cc(-c4ccc(O)cc4)ccc23)cc1`, 330 nM.

Another series relates to Mus musculus. Briefly: Anti-inflammatory activity in C57BL/6J mouse assessed as reduction in IL-6 induced serum hepcidin level at 30 mg/kg, ip pretreated for 30 mins followed by IL-6 challenge measured after 4 hrs. The series is classed as functional, organism-based.
Details: not given
As to `O=C(Nc1n[nH]c2cc(-c3ccc(O)cc3)ccc12)c1ccc(OCCN2CCOCC2)cc1`, the result was Active.

System in the next series: not listed separately
As to the kind of experiment: Lipophilicity, log D of the compound. The series is classed as physicochemical. The conditions noted are these: octanol/water.
The compound `O=C(Nc1n[nH]c2cc(-c3ccc(O)cc3)ccc12)c1ccc(OCCN2CCOCC2)cc1` returned a logD of 3.4.

System in another series: not listed separately
Briefly: AUC in C57BL/6J mouse at 30 mg/kg, ip. The series is classed as ADME, organism-based. Particulars: in vivo.
`O=C(Nc1n[nH]c2cc(-c3ccc(O)cc3)ccc12)c1ccc(OCCN2CCOCC2)cc1` had an AUC of 6930 ng·h/mL.

System in another series: not listed separately
Briefly: Metabolic stability in mouse liver microsomes assessed as compound remaining at 0.5 mg/mL after 0.5 hrs. The series is classed as ADME, microsome. Particulars: read-out: Stability.
With `O=C(Nc1n[nH]c2cc(-c3ccc(O)cc3)ccc12)c1ccc(OCCN2CCOCC2)cc1`, the remaining at 0.5 h worked out at 89%.

The species entered for the next series is Homo sapiens. Briefly: Inhibition of BMP6/hemojuvelin signalling pathway in human HepG2 cells assessed as reduction in hepcidin mRNA expression at 30 uM. The series is classed as cell-based.
Details: not given
On to `O=C(Nc1n[nH]c2cc(-c3ccccc3)ccc12)C1CC1`, for which the inhibition is 23%.
On the same count and under the same terms, the result for `O=C(Nc1n[nH]c2ccc(-c3ccccc3)cc12)C1CC1` reads -4%; that for `O=C(Nc1n[nH]c2cccc(-c3ccccc3)c12)C1CC1`, 8%.

System in another series: not listed separately
Briefly: Cmax in C57BL/6J mouse at 30 mg/kg, ip. The series is classed as ADME, organism-based. More on the design: dose 30 mg/kg, route intraperitoneal. Particulars: in vivo.
`O=C(Nc1n[nH]c2cc(-c3ccc(O)cc3)ccc12)c1ccc(OCCN2CCOCC2)cc1`: the highest level (Cmax) was 2640 ng/mL.
